Measurements from US20100075926A1, “ACTIVATION OF HISTONE DEACETYLASE 1 (HDAC1) PROTECTS AGAINST DNA DAMAGE AND INCREASES NEURONAL SURVIVAL” (priority 2008, published 2010).

Tests used:
Format in all cases: biochemical
recombinant human HDAC3 = target: T1, recombinant human HDAC3 (Homo sapiens, UniProt O15379); test: 384-well fluorometric deacetylase assay (substrate MAZ1600), HDAC3; details: for HDAC3 slope: rate of reaction (slope), DMSO control 54625; for % HDAC3 Activ: slope normalized to mean of DMSO control (DMSO = 1.00)
T1 construct: purchased BPS Biosciences
Excerpt: (§1) TCEP was omitted from the assay buffer. Rates of reactions (slopes) were normalized to the mean of DMSO control treatments for each enzyme on each plate. Bradner J E, West N, Grachan M L, Greenberg E F, Haggarty S J, Mazitsheck. Nature Chemical Biology (under review). Bradner J E, West N, Grachan M L, Greenberg E F, Haggarty S J, Mazitsheck. Chemical Phylogenetics of Histone Deacetylases. […] Z

recombinant human HDAC5 = target: T2, recombinant human HDAC5 (Homo sapiens, UniProt Q9UQL6); test: 384-well fluorometric deacetylase assay (substrate MAZ1675), HDAC5; details: for HDAC5 slope: rate of reaction (slope), DMSO control 50401; for % HDAC5 activ: slope normalized to mean of DMSO control (DMSO = 1.00)
T2 construct: purchased BPS Biosciences
Excerpt: as §1

recombinant human HDAC2 = target: T3, recombinant human HDAC2 (Homo sapiens, UniProt Q92769); test: 384-well fluorometric deacetylase assay (substrate MAZ1600), HDAC2; details: for HDAC2 slope: rate of reaction (slope), DMSO control 40839; for % HDAC2 Activ: slope normalized to mean of DMSO control (DMSO = 1.00)
T3 construct: purchased BPS Biosciences
Excerpt: as §1

recombinant human HDAC1 = target: T4, recombinant human HDAC1 (Homo sapiens, UniProt Q13547); test: 384-well fluorometric deacetylase assay (substrate MAZ1600), HDAC1; set-up: % HDAC1 Activ: unit not given here; details: for Classification: class assigned from the HDAC1, 2, 3, 5 panel; for HDAC1 slope: rate of reaction (slope), DMSO control 37787; for % HDAC1 Activ: slope normalized to mean of DMSO control (DMSO = 1.00)
T4 construct: purchased BPS Biosciences
Excerpt: as §1

T3 sequence (Q92769 whole entry): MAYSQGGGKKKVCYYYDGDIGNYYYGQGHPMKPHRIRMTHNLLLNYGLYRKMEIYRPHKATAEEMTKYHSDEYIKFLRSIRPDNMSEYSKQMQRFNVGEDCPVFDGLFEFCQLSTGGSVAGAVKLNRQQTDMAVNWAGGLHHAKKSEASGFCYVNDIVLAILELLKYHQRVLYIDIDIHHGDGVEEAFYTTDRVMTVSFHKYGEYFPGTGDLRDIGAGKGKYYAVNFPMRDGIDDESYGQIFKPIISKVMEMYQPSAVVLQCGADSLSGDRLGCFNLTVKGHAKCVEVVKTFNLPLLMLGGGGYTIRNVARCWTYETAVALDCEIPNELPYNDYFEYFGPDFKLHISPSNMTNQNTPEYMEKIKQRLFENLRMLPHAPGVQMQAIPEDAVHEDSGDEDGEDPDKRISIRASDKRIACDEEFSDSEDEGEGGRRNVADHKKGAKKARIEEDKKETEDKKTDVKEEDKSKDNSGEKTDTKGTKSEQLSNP
T4 sequence (Q13547 whole entry): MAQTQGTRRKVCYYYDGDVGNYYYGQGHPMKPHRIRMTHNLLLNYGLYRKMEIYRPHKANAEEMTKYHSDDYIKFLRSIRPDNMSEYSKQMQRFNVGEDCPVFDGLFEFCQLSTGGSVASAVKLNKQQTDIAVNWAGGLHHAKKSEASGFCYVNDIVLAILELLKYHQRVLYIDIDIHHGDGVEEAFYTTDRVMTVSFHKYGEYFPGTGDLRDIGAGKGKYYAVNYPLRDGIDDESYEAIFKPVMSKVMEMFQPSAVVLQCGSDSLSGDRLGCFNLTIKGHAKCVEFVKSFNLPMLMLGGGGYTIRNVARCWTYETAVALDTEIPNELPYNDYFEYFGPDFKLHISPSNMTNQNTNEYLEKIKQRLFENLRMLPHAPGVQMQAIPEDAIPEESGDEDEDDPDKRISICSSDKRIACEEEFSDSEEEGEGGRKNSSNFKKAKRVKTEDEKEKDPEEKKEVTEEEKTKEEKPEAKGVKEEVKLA
T1 sequence (O15379 whole entry): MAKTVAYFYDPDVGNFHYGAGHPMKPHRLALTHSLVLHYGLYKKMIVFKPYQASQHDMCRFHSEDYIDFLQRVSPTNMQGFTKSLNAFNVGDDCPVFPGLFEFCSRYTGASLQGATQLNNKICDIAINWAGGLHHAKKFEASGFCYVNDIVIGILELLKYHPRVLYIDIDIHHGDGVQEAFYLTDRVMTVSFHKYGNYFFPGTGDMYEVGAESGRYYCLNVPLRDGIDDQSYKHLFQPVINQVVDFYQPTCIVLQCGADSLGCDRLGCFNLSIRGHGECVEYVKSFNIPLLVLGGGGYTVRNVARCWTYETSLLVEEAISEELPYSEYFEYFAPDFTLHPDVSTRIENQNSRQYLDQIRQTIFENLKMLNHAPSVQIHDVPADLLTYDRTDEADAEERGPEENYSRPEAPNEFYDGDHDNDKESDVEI
T1 sequence (Q9Y618 395-489 partner limits assumed): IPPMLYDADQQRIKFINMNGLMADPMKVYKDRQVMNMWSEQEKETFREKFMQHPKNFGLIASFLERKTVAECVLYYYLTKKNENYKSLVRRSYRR
T2 sequence (Q9UQL6 whole entry): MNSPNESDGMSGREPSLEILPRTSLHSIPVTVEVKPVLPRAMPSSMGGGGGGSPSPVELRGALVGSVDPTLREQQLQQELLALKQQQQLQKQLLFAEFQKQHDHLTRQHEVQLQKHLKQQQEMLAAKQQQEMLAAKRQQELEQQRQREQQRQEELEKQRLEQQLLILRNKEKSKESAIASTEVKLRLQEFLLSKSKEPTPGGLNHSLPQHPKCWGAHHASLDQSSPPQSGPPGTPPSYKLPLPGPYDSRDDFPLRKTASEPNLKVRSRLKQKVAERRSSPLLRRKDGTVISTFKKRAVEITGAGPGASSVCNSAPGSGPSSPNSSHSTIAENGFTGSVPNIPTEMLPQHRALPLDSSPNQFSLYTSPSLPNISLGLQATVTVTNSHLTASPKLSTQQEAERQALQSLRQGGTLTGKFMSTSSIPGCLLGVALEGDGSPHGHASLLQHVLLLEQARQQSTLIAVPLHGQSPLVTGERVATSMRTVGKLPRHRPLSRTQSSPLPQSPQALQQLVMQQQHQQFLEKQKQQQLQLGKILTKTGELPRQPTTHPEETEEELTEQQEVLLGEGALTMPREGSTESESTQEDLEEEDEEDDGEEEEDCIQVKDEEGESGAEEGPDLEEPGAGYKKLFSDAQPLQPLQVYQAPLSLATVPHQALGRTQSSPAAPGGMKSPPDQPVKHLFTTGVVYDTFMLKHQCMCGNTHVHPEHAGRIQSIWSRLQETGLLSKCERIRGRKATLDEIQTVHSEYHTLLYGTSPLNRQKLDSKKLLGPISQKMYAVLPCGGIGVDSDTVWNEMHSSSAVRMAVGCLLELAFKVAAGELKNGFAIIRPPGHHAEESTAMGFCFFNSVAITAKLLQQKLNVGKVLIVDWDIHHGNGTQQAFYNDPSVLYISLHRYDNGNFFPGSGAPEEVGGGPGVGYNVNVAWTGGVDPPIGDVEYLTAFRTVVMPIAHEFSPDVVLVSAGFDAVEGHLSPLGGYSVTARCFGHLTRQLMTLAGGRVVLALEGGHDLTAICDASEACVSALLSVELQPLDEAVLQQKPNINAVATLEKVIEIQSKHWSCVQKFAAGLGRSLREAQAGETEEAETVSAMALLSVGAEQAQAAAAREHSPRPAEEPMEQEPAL

## Oc1cc2c(c(Cl)c1O)CCNC[C@@H]2c1ccccc1 [R(+)-SKF- 81297]
Recombinant human HDAC3
  HDAC3 slope: 66733
Recombinant human HDAC5
  HDAC5 slope: 48294
Recombinant human HDAC2
  HDAC2 slope: 42197
Recombinant human HDAC1
  Classification: HDAC1 & HDAC3 activator
  HDAC1 slope: 40201

## C[C@](N)(Cc1ccc(O)c(O)c1)C(=O)O [Methyldopa (L,-)]
Recombinant human HDAC3
  HDAC3 slope: 60891
Recombinant human HDAC5
  HDAC5 slope: 56516
Recombinant human HDAC2
  HDAC2 slope: 42153
Recombinant human HDAC1
  Classification: HDAC1 & HDAC3 activator
  HDAC1 slope: 40553

## O=C(O)[C@H]1C[C@@H](CP(=O)(O)O)CCN1 [CGS 19755]
Recombinant human HDAC3
  HDAC3 slope: 57057
Recombinant human HDAC5
  HDAC5 slope: 48280
Recombinant human HDAC2
  HDAC2 slope: 42301
Recombinant human HDAC1
  Classification: HDAC1 activator
  HDAC1 slope: 41839

## CC(O)(P(=O)([O-])O)P(=O)([O-])O.[Na+].[Na+] [Etidronic acid, disodium salt]
Recombinant human HDAC3
  HDAC3 slope: 58286
Recombinant human HDAC5
  HDAC5 slope: 51711
Recombinant human HDAC2
  HDAC2 slope: 41315
Recombinant human HDAC1
  Classification: HDAC1 & HDAC3 activator
  HDAC1 slope: 40241

## NC(C(=O)O)c1nnn[nH]1 (racemic)
Recombinant human HDAC3
  HDAC3 slope: 56930
Recombinant human HDAC5
  HDAC5 slope: 45589
Recombinant human HDAC2
  HDAC2 slope: 42215
Recombinant human HDAC1
  Classification: HDAC1 activator
  HDAC1 slope: 40343

## C[C@H](N)[C@H](O)c1ccc(O)c(O)c1 [Levonordefrin]
Recombinant human HDAC3
  HDAC3 slope: 62457
Recombinant human HDAC5
  HDAC5 slope: 47752
Recombinant human HDAC2
  HDAC2 slope: 40182
Recombinant human HDAC1
  Classification: HDAC1 & HDAC3 activator
  HDAC1 slope: 40405

## COc1cc([C@@H]2c3cc4c(cc3[C@H](O)[C@H]3COC(=O)[C@H]23)OCO4)cc(OC)c1OC [Podophyllo toxin, podophyllotoxin]
Recombinant human HDAC3
  HDAC3 slope: 53416
Recombinant human HDAC5
  HDAC5 slope: 54734
Recombinant human HDAC2
  HDAC2 slope: 39197
Recombinant human HDAC1
  Classification: HDAC1 activator
  HDAC1 slope: 40983

## phenazopyridine hydrochloride [Phenazo- pyridine hydrochloride]
Recombinant human HDAC3
  HDAC3 slope: 56613
  % HDAC3 Activ: 1.04 fraction of DMSO control
Recombinant human HDAC5
  HDAC5 slope: 54125
  % HDAC5 activ: 107%
Recombinant human HDAC2
  HDAC2 slope: 42470
  % HDAC2 Activ: 1.04 fraction of DMSO control
Recombinant human HDAC1
  Classification: HDAC1 activator
  HDAC1 slope: 40631
  % HDAC1 Activ: 1.08

## O=C(O)[C@@H]1C[C@H]2C[C@@H](CP(=O)(O)O)CC[C@H]2CN1 [LY 235959]
Recombinant human HDAC3
  HDAC3 slope: 65435
Recombinant human HDAC5
  HDAC5 slope: 43688
Recombinant human HDAC2
  HDAC2 slope: 42923
Recombinant human HDAC1
  Classification: HDAC1 & HDAC3 activator
  HDAC1 slope: 40893

## CCN(CC)CCc1nc(-c2ccccc2)no1.O=C(O)CC(O)(CC(=O)O)C(=O)O [Oxalamine citrate salt]
Recombinant human HDAC3
  HDAC3 slope: 60752
Recombinant human HDAC5
  HDAC5 slope: 47216
Recombinant human HDAC2
  HDAC2 slope: 41269
Recombinant human HDAC1
  Classification: HDAC1 & HDAC3 activator
  HDAC1 slope: 40700

## N[C@H](CC(=O)O)C(=O)O [D- ASPARTIC ACID, D-aspartic acid]
Recombinant human HDAC3
  HDAC3 slope: 54899
Recombinant human HDAC5
  HDAC5 slope: 45291
Recombinant human HDAC2
  HDAC2 slope: 42016
Recombinant human HDAC1
  Classification: HDAC1 activator
  HDAC1 slope: 40655

## NCC(CC(=O)O)c1ccc(Cl)s1 (racemic) [(+-)-4-amino-3-(5-chloro-2-thienyl)-butanoic acid]
Recombinant human HDAC3
  HDAC3 slope: 54049
  % HDAC3 Activ: 0.99 fraction of DMSO control
Recombinant human HDAC5
  HDAC5 slope: 50272
  % HDAC5 activ: 100%
Recombinant human HDAC2
  HDAC2 slope: 40008
  % HDAC2 Activ: 0.98 fraction of DMSO control
Recombinant human HDAC1
  Classification: HDAC1 activator
  HDAC1 slope: 40239
  % HDAC1 Activ: 1.06

## CC1(C)S[C@@H]2[C@H](NC(=O)[C@H](N)c3ccccc3)C(=O)N2[C@H]1C(=O)O [Ampicillin trihydrate]
Recombinant human HDAC3
  HDAC3 slope: 56660
Recombinant human HDAC5
  HDAC5 slope: 46606
Recombinant human HDAC2
  HDAC2 slope: 43966
Recombinant human HDAC1
  Classification: HDAC1 & HDAC3 activator
  HDAC1 slope: 40160

## CP(=O)(O)CCCN [SK&F 97541]
Recombinant human HDAC3
  HDAC3 slope: 54915
Recombinant human HDAC5
  HDAC5 slope: 49250
Recombinant human HDAC2
  HDAC2 slope: 39881
Recombinant human HDAC1
  Classification: HDAC1 activator
  HDAC1 slope: 40213
